From patent publication US12104176B2, “Efficient cell culture system for hepatitis C virus genotype 6A” (priority 2018, dated 2024)
Where two headings read alike, the source gives them in different places. Marks after values point to notes of the source that are not given here.

Key:
TN (1a) = test: Concentration-response treatment of infected Huh7.5 cells, TN (1a) control virus; conditions: Hepatitis C virus, Huh7.5, read-out: EC50, nM (95% CI), TN (1a)
Procedure: (§1) Huh7.5 cells were seeded in 96-well plates and then infected with the indicated viruses. TN (1a) was used as a comparative control. 24 h after infection, cells were treated with the indicated NS5A inhibitor for 48 h. Values are means of triplicates±SEM. Concentration-response curves were calculated as previously described^26.
(§2) All concentration-response treatment experiments were performed using established methods^16,18,26. For half-maximal effective concentration (EC50) value calculations, a sigmoidal concentration-response curve was fitted using GraphPad Prism 6^18,26.

HK2 (6a) = conditions: for EC50: Hepatitis C virus, Huh7.5, read-out: EC50, nM (95% CI), HK2 (6a); for Fold to TN, HK2 (6a): fold change in EC50 compared to TN
Procedure: as §1, §2

HK6a (6a) = test: Concentration-response treatment of infected Huh7.5 cells, HK6a full-length virus; conditions: for EC50: Hepatitis C virus, Huh7.5, read-out: EC50, nM (95% CI), HK6a (6a); for Fold to TN, HK6a (6a): fold change in EC50 compared to TN
Procedure: as §1, §2

[1] = test system: HK2cc recombinant viruses with NS5B-S282T
HK2cc = test: microbe, parasite or virus in culture; assay type: cell-based; conditions: Hepatitis C virus; HK2cc in separate experiment of FIG. 4
[2] = test system: HK6a-SOFesc, S282T (NS5B); assay type: cell-based, HCV genotype 6a; conditions: HK6a-SOFesc vs original HK6a
HK2-SOFesc, S282T (NS5B) = assay type: cell-based, HCV genotype 6a; conditions: HK2-SOFesc vs original HK2
[3] = test system: HK6a full-length virus (original); conditions: for outcome of long-term treatment / outcome of long-term treatment (resistance selection): HK6a; for outcome of long-term treatment: velpatasvir (10 nM) and sofosbuvir (570 nM), individually or combined; for day from which no HCV-antigen positive cells were detectable: HK6a original virus
Procedure: Long-term treatment was performed for HK6a viruses as described in Materials and Methods. (A): Percentage HCV-antigen positive cells determined by evaluation of Core/NS5A-antigen positive versus total number of cells during treatment (y-axis) at the indicated time points (x-axis) (top panel). […] Changes in HCV RNA levels (y-axis) related to day 0 (treatment initiated), were determined from supernatants at corresponding time-points (x-axis) (bottom panel)^18. (B-D): Combination treatment of sofosbuvir (570 nM) and different concentrations of velpatasvir [0.1(10x−EC50), 1(100x−EC50), 10(1000x−EC50) nM], were performed with HK6a escape viruses compared with original viruses.
For long-term DAA treatments, Huh7.5 cells were infected with second-passage supernatants of HK2(H77_3′XSLI)-17m or HK6a(FL)-12m viruses (Table 1, FIG. 1F). […] Treatments were carried out in T25 flasks, and drugs were diluted in medium at the indicated concentration. Drugs were added every 2-3 days when cells were split. HCV RNA levels were determined using supernatants collected at indicated time points as described^18. The percentage of HCV positive cells, at indicated time-points, was determined by immunostaining, and supernatants were collected and stored at −80° C. for further analysis. At day 25 after initiation of treatment, cultures with no detectable HCV positive cells were divided into 2 flasks, and one of the replicates was cultured without drug. These untreated cultures were followed for 2 weeks and if no HCV positive cells were detected by immunostaining, the infection was considered cleared.

[4] = test system: escape viruses with RAS NS5B-S282T (HK2 and HK6a); assay type: cell-based, HCV genotype 6a; conditions: escape viruses generated in drug-free cultures, FIGS. 4A, B
[5] = test system: HK6a-VELesc/PIB(10 nM)esc, L28S + L31V (NS5A); assay type: cell-based, HCV genotype 6a; conditions: HK6a-VELesc/PIB(10 nM)esc (L28S+L31V) vs original HK6a
[6] = test system: HK6a-SOFesc/VELesc, S282T (NS5B)/L28S (NS5A); assay type: cell-based, HCV genotype 6a; conditions: HK6a-SOFesc/VELesc (L28S) vs original HK6a
[7] = test system: velpatasvir escape viruses of HK2 and HK6a (NS5A-L31V); assay type: cell-based, HCV genotype 6a; conditions: drug-free passage stocks of HK2 and HK6a escape viruses, FIG. 3A
HK6a-VELesc, L31V (NS5A) = assay type: cell-based, HCV genotype 6a; conditions: HK6a-VELesc vs original HK6a
[8] = test system: HK6a-VELesc/PIB(3 nM)esc, V21A + L28S + L31V (NS5A); assay type: cell-based, HCV genotype 6a; conditions: HK6a-VELesc/PIB(3 nM)esc vs original HK6a
HK2-VELesc, L31V (NS5A) = assay type: cell-based, HCV genotype 6a; conditions: HK2-VELesc vs original HK2
[9] = test system: HK6a velpatasvir escape virus harboring NS5A-L31V; assay type: cell-based; conditions: pibrentasvir 0.3, 3 and 10 nM
[10] = Huh7.5 cells, treated 24 h after infection for 48 h, ni = not inhibited at highest concentration used

Row | Structure (SMILES) | EC50 (TN (1a)) [nM] | EC50 (HK2 (6a)) [nM] | Fold to TN, HK2 (6a) (HK2 (6a)) [fold] | EC50 (HK6a (6a)) [nM] | Fold to TN, HK6a (6a) (HK6a (6a)) [fold] | other results
1 | COC(=O)N[C@H](C(=O)N1CC2(CC2)C[C@H]1c1nc(-c2ccc3c(c2)C(F)(F)c2cc(-c4ccc5[nH]c([C@@H]6[C@H]7CC[C@H](C7)N6C(=O)[C@@H](NC(=O)OC)C(C)C)nc5c4)ccc2-3)c[nH]1)C(C)C [Ledipasvir] | 0.005 | 0.228 | 45.6 | 0.346 | 69.2 | –
2 | CC(C)OC(=O)[C@H](C)N[P@](=O)(OC[C@H]1O[C@@H](n2ccc(=O)[nH]c2=O)[C@](C)(F)[C@@H]1O)Oc1ccccc1 [Sofosbuvir] | 481 | 393 | 0.8 | 513 | 1.1 | fold lower sensitivity compared with HK2cc [1]: 3 to 5 fold; EC50 (HK2cc): 653 nM; Fold-change EC50 to original virus [2]: ≥8^d fold; Fold-change EC50 to original virus (HK2-SOFesc, S282T (NS5B)): 7.9 fold; outcome of long-term treatment [3]: failed to fully suppress the infection; fold increase in EC50 [4]: ≥ 8 fold
3 | CC(C)(C)C#Cc1cc(N(C(=O)[C@H]2CC[C@H](C)CC2)[C@H]2CC[C@H](O)CC2)c(C(=O)O)s1 [Lomibuvir] | 27.6 | > 4000 | – | > 4000 | – | EC50, nM (95% CI), HK2 (6a) (HK2 (6a); [10]): ni; EC50, nM (95% CI), HK6a (6a) (HK6a (6a); [10]): ni
4 | COC[C@H]1C[C@@H](c2nc(-c3ccc4c(c3)COc3cc5c(ccc6nc([C@@H]7CC[C@H](C)N7C(=O)[C@@H](NC(=O)OC)C(C)C)[nH]c65)cc3-4)c[nH]2)N(C(=O)[C@H](NC(=O)OC)c2ccccc2)C1 [Velpatasvir] | 0.005 | 0.007 | 1.4 | 0.011 | 2.2 | Fold-change EC50 to original virus [5]: > 899.000 fold; Fold-change EC50 to original virus ([5]; listed as VEL): ≥899.214^d fold; Fold-change EC50 to original virus [6]: ~58.000 fold; Fold-change EC50 to original virus ([6]; listed as VEL): 58.105 fold; fold increase in EC50 in comparison with the pre-treatment virus [7]: 2- to 3 thousand; Fold-change EC50 to original virus [2]: 1 fold; Fold-change EC50 to original virus (HK6a-VELesc, L31V (NS5A)): 2384 fold; Fold-change EC50 to original virus [8]: ≥992.928^d fold; outcome of long-term treatment [3]: failed to fully suppress the infection; Fold-change EC50 to original virus (HK2-VELesc, L31V (NS5A)): 3066 fold
5 | COC(=O)N[C@H](C(=O)N1CCC[C@H]1c1nc(-c2ccc(-c3ccc(-c4c[nH]c([C@@H]5CCCN5C(=O)[C@@H](NC(=O)OC)C(C)C)n4)cc3)cc2)c[nH]1)C(C)C [Daclatasvir] | 0.019 | – | – | 0.014 | – | –
6 | CNC(=O)c1c(-c2ccc(F)cc2)oc2cc(N(CCO)S(C)(=O)=O)c(C3CC3)cc12 [HCV-796] | 26 | 24 | 0.9 | 131 | 5.0 | –
7 | COC(=O)N[C@H](C(=O)N1CCC[C@H]1C(=O)Nc1ccc([C@@H]2CC[C@@H](c3ccc(NC(=O)[C@@H]4CCCN4C(=O)[C@@H](NC(=O)OC)C(C)C)cc3)N2c2ccc(C(C)(C)C)cc2)cc1)C(C)C [Ombitasvir] | 0.002 | 0.6 | 300.0 | 2.2 | 1100.0 | –
8 | CC(C)OC(=O)[C@@H](C)N[P@@](=O)(OC[C@H]1O[C@@H](n2ccc(=O)[nH]c2=O)[C@](C)(Cl)[C@@H]1O)Oc1ccccc1 [MK-3682] | 392 | 370 | 0.9 | 522 | 1.3 | –
9 | COc1ccc2c(c1)[C@@H]1C[C@]1(C(=O)N1[C@@H]3CC[C@H]1CN(C)C3)Cn1c-2c(C2CCCCC2)c2ccc(C(=O)NS(=O)(=O)N(C)C)cc21 [Beclabuvir] | 5.3 | 28.1 | 5.3 | 34.1 | 6.4 | –
10 | COC(=O)N[C@H](C(=O)N1CCC[C@H]1c1nc2cc([C@H]3CC[C@H](c4cc5nc([C@@H]6CCCN6C(=O)[C@@H](NC(=O)OC)[C@@H](C)OC)[nH]c5cc4F)N3c3cc(F)c(N4CCC(c5ccc(F)cc5)CC4)c(F)c3)c(F)cc2[nH]1)[C@@H](C)OC [Pibrentasvir] | 0.004 | 0.002 | 0.6 | 0.004 | 1.0 | Fold-change EC50 to original virus [5]: 79.000 fold; Fold-change EC50 to original virus [6]: 250 fold; Fold-change EC50 to original virus [2]: 1 fold; outcome of long-term treatment [9]: escaped the treatment at all concentrations; Fold-change EC50 to original virus (HK6a-VELesc, L31V (NS5A)): 1 fold; Fold-change EC50 to original virus [8]: 85.500 fold; day from which no HCV-antigen positive cells were detectable ([3]; pibrentasvir 0.3 nM): 7 days; day from which no HCV-antigen positive cells were detectable ([3]; pibrentasvir 3 nM): 5 days; day from which no HCV-antigen positive cells were detectable ([3]; pibrentasvir 10 nM): 5 days; outcome of long-term treatment (resistance selection) ([3]; PIB 0.3 nM): Infection cleared; outcome of long-term treatment (resistance selection) ([3]; PIB 3 nM): Infection cleared; outcome of long-term treatment (resistance selection) ([3]; PIB 10 nM): Infection cleared; Fold-change EC50 to original virus (HK2-VELesc, L31V (NS5A)): 1 fold
11 | COC(=O)N[C@H](C(=O)N1CCC[C@H]1c1nc(-c2ccc3c(c2)O[C@@H](c2ccccc2)n2c-3cc3cc(-c4c[nH]c([C@@H]5CCCN5C(=O)[C@@H](NC(=O)OC)C(C)C)n4)ccc32)c[nH]1)C(C)C [Elbasvir] | 0.006 | 0.017 | 2.8 | 0.009 | 1.5 | –
12 | COc1c(-c2ccc3cc(NS(C)(=O)=O)ccc3c2)cc(-n2ccc(=O)[nH]c2=O)cc1C(C)(C)C [Dasabuvir] | 35.5 | 267 | 7.5 | 434 | 12.2 | –
